Source: patent US4087461A, “Anti-androgenic steroids” (The Johns Hopkins University, priority 1977, dated 1978)
Entries after “also recorded” stand apart in the source; their conditions may differ.

Columns and labels:
[1] = target: T1, Δ^5 -3-ketosteroid isomerase (EC 5.3.3.1) (Comamonas testosteroni, UniProt P00947); assay: irreversible inactivation of crystalline purified bacterial Δ^5-3-ketosteroid isomerase by acetylenic steroids (Kitz and Wilson kinetic analysis); assay type: biochemical, Pseudomonas testosteroni
T1 sequence (P00947 whole entry, stated change not applied): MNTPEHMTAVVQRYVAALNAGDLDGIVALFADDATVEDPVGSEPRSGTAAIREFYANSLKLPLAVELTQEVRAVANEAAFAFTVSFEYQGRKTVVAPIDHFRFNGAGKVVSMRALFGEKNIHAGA
Description: The inactivation is progressive with time, and half-lives in the range of 150-1320 sec are observed at concentrations of 20-200 μM of the two inhibitors. The enzymatic activities of control vessels which received only equivalent volumes of 1,4-dioxane remained constant at initial activities.
The initial rates of inactivation of the isomerase by (1) and (2) can be analyzed by the method of Kitz and Wilson^8 since very satisfactory pseudo-first-order behavior was observed. It is assumed that [I] (inhibitor) >> [E] (enzyme), that [E.I] (the reversible enzyme-inhibitorcomplex) is at all times in equilibrium with enzyme and inhibitor, and that ^k cat >> ^k inh. The scheme for the formation of EI' (the irreversible enzyme-inhibitor derivative) may then be represented as follows.
If the enzyme-inhibitor solution is diluted extensively prior to assay, the active enzyme (ε) = [E] + [E.I]. Then -d(ε)/dt = k3 [E.I.], and K1 = ([E][I])/[EI]. Thus [formula] where Et = total amount of enzyme in system.
If one defines [formula] Consequently double reciprocal plots of kapp with respect to [I] should be linear, with slopes and intercepts permitting the determination of K1 and k3 where the latter is the overall rate constant for the irreversible inhibition process.
From plots of 1n ε (residual enzymatic activity) vs. time, kapp has been determined at five inhibitor concentrations for both compounds 1 and 2, i.e. estryne and pregnyne. Strict linearity of the semilogarithmic plots has been observed in all cases, over greater than two half-lives. A plot of 1/kapp vs. 1/[I] was linear and gave k3 and K1 (FIG. 1). For compound 1, K1 = 56 μM and k3 = 1.98 × 10^-3 sec^-1, and for compound 2, K1 = 32 μM and k3 = 4.10 × 10^-3 sec^-1.
Studies were performed using crystalline purified bacterial Δ^5 -3-ketosteroid isomerase (from P. testosteroni), under pseudo first order conditions using the kinetic analysis of R. Kitz and I. B. Wilson [J. Biol. Chem., 237, 3245 (1964)].

[2] = test system: endogenous androgen biosynthesis; assay: study in intact male rats: weights of sex accessory tissue and other organs; assay type: in vivo, male Sprague-Dawley rats; conditions: 7 days; for Adrenal weight (± Sem): intact control 27 ± 2; for Dorsal Lateral Prostate weight (± Sem): intact control 244 ± 12; for Seminal Vesicles weight (± Sem): intact control 394 ± 12; for Ventral Prostate weight (± Sem): intact control 421 ± 15; for Kidney weight (± Sem): intact control 1260 ± 63; for Testis weight (± Sem): intact control 1650 ± 38
Description: Studies with intact male Sprague-Dawley rats (300g body weight) are illustrated for compounds (1) and (2).
Similarly, compound (2), […] rats at a dosage of 20mg per kilo for 7 days produced 20% reduction in weight of the ventral prostate and 28% reduction of the dorsal lateral prostate.
The following data illustrates the inhibiting effect of estryne and pregnyne on Δ^5 -3-ketosteroid isomerase (EC 5.3.3.1) as evidenced by a depression of the wet weight of the sex accessory tissue in the mature male rat treated with the estryne and pregnyne.
A. Male rats were used to assess the effect of estryne on endogenous androgen biosynthesis at varying doses (1-20 mg/kg body weight). […] On the eighth day the animals were sacrificed and the ventral prostate, dorsal lateral prostate, seminal vesicles, testes, kidneys, and adrenals were removed and weighed. Samples of each tissue were preserved in 10% buffered formalin for histological examination.
B. Male rats were treated with 19-norpregnyne by a regimen exactly as described for the estryne.

[3] = target: T2, cytosol androgen receptor (prostate androgen binding protein) (Rattus norvegicus, UniProt P15207); assay: inhibition of nuclear uptake of ^3H-dihydrotestosterone in ventral prostate minces (binding to the prostatic androgen receptor)
T2 construct: freshly minced ventral prostate tissue obtained from rats castrated 24 hours before sacrifice; from tissue; host or cells: ventral prostate minces of castrated rats
T2 sequence (P15207 1-902): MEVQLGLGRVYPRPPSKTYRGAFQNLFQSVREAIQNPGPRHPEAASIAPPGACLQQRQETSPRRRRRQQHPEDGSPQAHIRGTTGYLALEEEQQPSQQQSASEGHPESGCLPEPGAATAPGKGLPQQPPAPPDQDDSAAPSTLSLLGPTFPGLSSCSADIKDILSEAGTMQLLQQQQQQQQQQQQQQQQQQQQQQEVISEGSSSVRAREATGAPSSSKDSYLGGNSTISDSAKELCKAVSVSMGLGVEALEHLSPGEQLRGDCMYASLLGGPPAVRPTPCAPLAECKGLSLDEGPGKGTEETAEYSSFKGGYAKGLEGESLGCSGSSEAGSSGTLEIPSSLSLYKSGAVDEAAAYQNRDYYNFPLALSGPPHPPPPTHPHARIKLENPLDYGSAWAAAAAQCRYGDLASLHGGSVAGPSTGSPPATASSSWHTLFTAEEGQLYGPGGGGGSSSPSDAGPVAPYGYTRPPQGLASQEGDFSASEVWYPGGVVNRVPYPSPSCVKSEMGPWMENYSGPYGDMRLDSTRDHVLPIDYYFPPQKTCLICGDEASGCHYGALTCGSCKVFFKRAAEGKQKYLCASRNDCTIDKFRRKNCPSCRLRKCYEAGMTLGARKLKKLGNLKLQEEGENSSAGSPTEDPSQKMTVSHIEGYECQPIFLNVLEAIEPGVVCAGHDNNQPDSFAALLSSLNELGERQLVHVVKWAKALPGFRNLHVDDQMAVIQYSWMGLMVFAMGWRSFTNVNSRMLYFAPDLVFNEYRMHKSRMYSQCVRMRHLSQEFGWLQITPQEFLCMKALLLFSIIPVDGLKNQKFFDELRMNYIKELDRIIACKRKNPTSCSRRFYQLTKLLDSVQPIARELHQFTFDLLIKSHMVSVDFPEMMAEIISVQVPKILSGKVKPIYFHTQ
Description: The binding to the cytosol androgen receptor was determined by the procedure of Fang (5) with modification. […] The amount of radioactivity in the nuclei is expressed as observed counts per minute per 100 μg DNA.

[4] = target: T1, Δ^5 -3-ketosteroid isomerase (EC 5.3.3.1); assay: irreversible inactivation of crystalline purified bacterial Δ^5-3-ketosteroid isomerase by acetylenic steroids (Kitz and Wilson kinetic analysis); assay type: biochemical, Pseudomonas testosteroni; conditions: 24 hr at 4° vs. 1 mM potassium phosphate buffer, pH 7.0
[5] = 20mg per kilo per day, i.p. in propylene glycol

## C[C@]12CC[C@@H]3C(=O)CCC(=O)CC#CC[C@H]3[C@@H]1CCC2=O [Compound 1, 5,10-secoestr-5-yne-3,10,17-trione]
[1]; in words
  irreversible inhibition / inactivation of the enzyme: rapid irreversible inhibition; also recorded: rapid irreversible and complete inactivation of the enzyme; also recorded: Powerful irreversible inhibition
[1]; pH 7.0, 20-200 μM of the two inhibitors, in 1,4-dioxane
  half-life of enzyme inactivation: 2.5 to 22 min
[1]; pH 7, pseudo first order conditions, five inhibitor concentrations (10-fold range), read-out: k3, overall rate constant for the irreversible inhibition process
  kinact: 0.00198 s⁻¹
[1]; pseudo first order conditions, five inhibitor concentrations (10-fold range), read-out: K1 (KI), inhibitor dissociation constant
  Ki: 56 µM
[2]; [5]
  reduction in weight of the dorsal lateral prostate: 25-30%
  reduction in weight of the ventral prostate: 28%
[2]; 20mg per kilo per day, i.p. in propylene glycol, listed as estryne
  reduction in weight of the ventral prostate: 25-30%
[2]; 1-20 mg/kg, in words
  dose dependence of the effect on prostatic weight: dose dependent
[2]; in words
  effect on weight of the adrenal: no effect
  effect on weight of the kidney: no effect
  effect on weight of the seminal vesicles: Only a modest decrease
  effect on weight of the testes: no effect
  effect on wet weight of the dorsal-lateral prostate: depresses the wet weight
  effect on wet weight of the ventral prostate: depresses the wet weight
[2]; estryne 1 mg/kg daily i.p.
  Adrenal weight (± Sem): 28 ± 2 mg
  Dorsal Lateral Prostate weight (± Sem): 212 ± 19 mg
  Seminal Vesicles weight (± Sem): 380 ± 18 mg
  Ventral Prostate weight (± Sem): 435 ± 23 mg
  Kidney weight (± Sem): 1320 ± 68 mg
  Testis weight (± Sem): 1650 ± 60 mg
[2]; estryne 5 mg/kg daily i.p.
  Adrenal weight (± Sem): 26 ± 2 mg
  Dorsal Lateral Prostate weight (± Sem): 195 ± 8 mg
  Seminal Vesicles weight (± Sem): 368 ± 16 mg
  Ventral Prostate weight (± Sem): 385 ± 8 mg
  Kidney weight (± Sem): 1090 ± 39 mg
  Testis weight (± Sem): 1590 ± 54 mg
[2]; estryne 10 mg/kg daily i.p.
  Adrenal weight (± Sem): 30 ± 2 mg
  Dorsal Lateral Prostate weight (± Sem): 188 ± 6 mg
  Seminal Vesicles weight (± Sem): 387 ± 14 mg
  Ventral Prostate weight (± Sem): 364 ± 25 mg
  Kidney weight (± Sem): 1150 ± 42 mg
  Testis weight (± Sem): 1580 ± 59 mg
[2]; estryne 20 mg/kg daily i.p.
  Adrenal weight (± Sem): 30 ± 3 mg
  Dorsal Lateral Prostate weight (± Sem): 177 ± 15 mg
  Seminal Vesicles weight (± Sem): 309 ± 23 mg
  Ventral Prostate weight (± Sem): 302 ± 28 mg
  Kidney weight (± Sem): 1040 ± 35 mg
  Testis weight (± Sem): 1420 ± 64 mg
[3]; 2 × 10^-6 M with ^3H-DHT 2 × 10^-9 M
  inhibition of nuclear uptake of ^3H-dihydrotestosterone: approximately 50%
[3]; rat, 1 h, pH 7.4, steroid 2 × 10^-6 M with ^3H-DHT 2 × 10^-9 M, read-out: nuclear uptake of ^3H-DHT, % Control
  remaining activity at 2 µM: 56%
[3]; steroid 2 × 10^-6 M with ^3H-DHT 2 × 10^-9 M, control 8,471
  CPM/100 DNA (nuclear uptake of ^3H-DHT): 4,771 CPM/100 DNA
[4]
  restoration of enzymatic activity by prolonged dialysis: inability to restore enzymatic activity
